The text below walks through data of US11517729B2, “Integrated fiber microneedle device for drug and vaccine delivery” (University of Washington, priority 2018, dated 2022).

A short description of this data set: Release studies of integrated fiber microneedles in PBS. Type of data set: physicochemical. How it is done:
A small molecule drug, a model protein, and plasmid DNA were loaded into individual devices and the release kinetics of each were measured. These agents were loaded into an array of 420 needles, with a total device size of 4.2 cm^2. In this experiment, the needles were 350 μm in diameter and 800 μm tall. […] Each agent was successfully loaded into the fiber-microneedle system using a loading of 100 μg for the small molecule, […] for the protein, and 1.1 μg for the DNA. […] This plateau occurred at different percent release for the different agents. The small molecule plateaued at 70% release, the protein plateaued at 35% release, and the plasmid DNA plateaued around 80% release. […]
Data represent release from a single array of integrated fiber microneedles. Complete (100%) release was determined by TFV detected in release media after 84 days. […] 100% release was determined by DNA detected in release media after 25 days.
Microneedle characterization: SEM imaging of electrospun fibers on the two-layer composite microneedle molds and completed microneedles was performed on a JEOL JSM7400F cold field emission scanning electron microscope. […] TFV content was determined by HPLC (Shimadzu Prominence LC20AD UV-HPLC) with a Phenomenex Luna 153 C18 column and LCSolutions software. […] The column was heated to 30° C., and TFV was detected at 259 nm. BSA content was analyzed by the Pierce MicroBCA Assay. […]

In the case of `C[C@H](Cn1cnc2c(N)ncnc21)OCP(=O)(O)O` [TFV, tenofovir], where the note is “TFV from integrated fiber microneedles into PBS, HPLC, 100% = TFV detected in release media after 84 days, single array”, the “plateau of percent release” value amounted to 70%. Besides, for the setting “from integrated fiber microneedles (array of 420 needles) into PBS”, the release profile entry is on record as “sharp initial burst release followed by a plateau”.
